Source: US9808466B2, “Macrocyclic compounds as protein kinase inhibitors” (Fundación Centro Nacional de Investigaciones Oncologicas …, priority 2011, dated 2017)
Like-named read-outs stand apart in the source and are kept apart here.

How the values were obtained:
[1] = biological target: T1, PI3K (p110α/p85α) (Homo sapiens, UniProt P42336); assay: PI3K activity assay (ADP Hunter Plus); type: biochemical
T1 construct: purchased Carna Biosciences 07CBS-0402A
Experimental: The kinase activity was measured by using the commercial ADP Hunter™ Plus assay available from DiscoveRx (#33-016), which is a homogeneous assay to measure the accumulation of ADP, a universal product of kinase activity. […] Reaction was carried out for 1 hour at 25° C. Reagent A and B were sequentially added to the wells and plates were incubated for 30 min at 37° C. Fluorescence counts were read in a Victor instrument (Perkin Elmer) with the recommended settings (544 and 580 nm as excitation and emission wavelengths, respectively). Values were normalized against the control activity included for each enzyme (i.e., 100% PI3 kinase activity, without compound). These values were plotted against the inhibitor concentration and were fit to a sigmoid dose-response curve by using the Graphad software.

[2] = biological target: T2, mTOR (Homo sapiens, UniProt P42345); assay: mTOR assay (LanthaScreen kinase activity assay); type: biochemical
T2 construct: purchased Invitrogen PV4754
T2 sequence (P42345 1360-2549 limits assumed): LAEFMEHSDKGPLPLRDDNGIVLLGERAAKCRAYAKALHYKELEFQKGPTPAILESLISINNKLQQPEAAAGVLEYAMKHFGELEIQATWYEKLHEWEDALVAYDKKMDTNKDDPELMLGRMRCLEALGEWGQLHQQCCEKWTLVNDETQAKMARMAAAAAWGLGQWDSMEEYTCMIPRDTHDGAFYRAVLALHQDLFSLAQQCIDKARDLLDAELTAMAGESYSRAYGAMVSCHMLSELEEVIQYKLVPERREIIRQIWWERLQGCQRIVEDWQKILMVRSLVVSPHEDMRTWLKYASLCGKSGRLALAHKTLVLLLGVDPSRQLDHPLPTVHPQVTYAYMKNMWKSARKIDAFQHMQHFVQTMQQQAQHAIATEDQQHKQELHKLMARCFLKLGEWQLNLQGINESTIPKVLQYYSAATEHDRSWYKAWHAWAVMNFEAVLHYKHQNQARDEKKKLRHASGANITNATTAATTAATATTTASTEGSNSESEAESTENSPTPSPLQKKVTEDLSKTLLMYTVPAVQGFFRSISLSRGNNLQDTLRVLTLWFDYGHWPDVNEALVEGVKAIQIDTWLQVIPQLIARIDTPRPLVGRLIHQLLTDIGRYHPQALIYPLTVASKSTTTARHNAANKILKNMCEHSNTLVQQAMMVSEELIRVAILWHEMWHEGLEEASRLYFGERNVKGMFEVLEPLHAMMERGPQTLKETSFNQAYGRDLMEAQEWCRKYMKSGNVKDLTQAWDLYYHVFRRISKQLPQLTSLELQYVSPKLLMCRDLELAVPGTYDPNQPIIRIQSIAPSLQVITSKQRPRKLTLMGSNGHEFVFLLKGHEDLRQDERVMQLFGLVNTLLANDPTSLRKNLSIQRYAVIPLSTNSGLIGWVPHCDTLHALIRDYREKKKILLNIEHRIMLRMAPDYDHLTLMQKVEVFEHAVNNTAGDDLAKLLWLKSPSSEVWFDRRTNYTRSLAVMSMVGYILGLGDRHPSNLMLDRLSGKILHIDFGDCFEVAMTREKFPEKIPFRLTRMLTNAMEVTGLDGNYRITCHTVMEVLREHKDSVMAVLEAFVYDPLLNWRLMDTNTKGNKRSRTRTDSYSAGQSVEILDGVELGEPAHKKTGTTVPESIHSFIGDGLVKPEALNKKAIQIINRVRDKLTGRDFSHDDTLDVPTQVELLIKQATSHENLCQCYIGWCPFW
Experimental: The enzymatic mTOR activity was measured using a LanthaScreen™ kinase activity assay (Invitrogen). The enzyme was purchased from Invitrogen (PV4754), as well as the GFP-labeled substrate (4EBP1-GFP; PV4759) and the Tb-anti-p4EBP1(pThr46) antibody (PV4757). The assay was performed in 50 mM HEPES buffer, pH 7.5, containing 1.5 mM MnCl2, 10 mM MgCl2, 1 mM EGTA, 2.5 mM DTT and 0.01% Tween-20. The concentration of the assay components were the following: 0.24 nM mTOR kinase, 400 nM 4EBP1-GFP, […] and serial dilutions of the compound (inhibitor) to be evaluated. After 1 h incubation at room temperature, 20 mM EDTA was used to stop the reaction and terbium-labeled antibody (4 nM) added to detect phosphorylated product. The antibody associates with the phosphorylated product resulting in an increased TR-FRET value. The TR-FRET value (a dimensionless number) was calculated as the ratio of the acceptor signal (GFP, emission at 520 nm) to the donor signal (terbium, emission at 495 nm). Values were plotted against the inhibitor concentration and fitted to a sigmoid dose-response curve using GraphPad software.

[3] = biological target: T3, PIM-1 (Homo sapiens, UniProt P11309); assay: PIM-1 biochemical assay (ADP Hunter); settings: PIM1
T3 construct: histidine tag (C); made in house
T3 sequence (P11309 whole entry): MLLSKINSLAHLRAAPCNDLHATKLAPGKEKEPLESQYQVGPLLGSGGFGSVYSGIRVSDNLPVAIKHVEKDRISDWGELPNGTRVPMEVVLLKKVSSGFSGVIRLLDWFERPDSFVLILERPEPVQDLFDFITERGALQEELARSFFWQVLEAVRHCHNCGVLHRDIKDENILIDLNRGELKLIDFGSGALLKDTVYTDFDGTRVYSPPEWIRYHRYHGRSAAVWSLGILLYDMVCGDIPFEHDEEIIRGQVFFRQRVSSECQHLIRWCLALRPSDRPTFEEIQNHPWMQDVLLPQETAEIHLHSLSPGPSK
Description: The biochemical assay to measure PIM-1 activity relies on the ADP Hunter assay kit (DiscoveRx Corp., Cat. #90-0077), that determines the amount of ADP as direct product of the kinase enzyme activity.
The enzyme has been expressed and purified in-house as a recombinant human protein with a C-terminal histidine tag. The protein is active and stable.
Assay conditions were as indicated by the kit manufacturers with the following adaptations for the kinase activity step: • Kinase assay buffer and assay volume stay as recommended (15 mM HEPES, pH 7.4, 20 mM NaCl, 1 mM EGTA, 0.02% Tween 20, 10 mM MgCl2 and 0.1 mg/ml bovine γ-globulins/75 μl assay volume) • Incubation time and temperature: 60 min at 30° C. • PIM-1 concentration: 50 pg/μl • ATP concentration: 100 μM • PIM-1 substrate peptide: PIMtide ([…]) (SEQIDNO. 1) • Peptide concentration: 60 μM • Positive control for kinase activity inhibition: 1-10 μM Staurosporine • DMSO concentration have to stay below 2% during the kinase reaction
Assays were performed in either 96 or 384-well plates. The final outcome of the coupled reactions provided by the kit is the release of the fluorescent product Resorufin and has been measured with a multilabel HTS counter VICTOR V (PerkinElmer) using an excitation filter at 544 nm and an emission filter at 580 nm.

[4] = read-out: PI3K alpha activity, IC50 (semi-quantitative class)
[5] = read-out: PI3K alpha actual IC50 (in parentheses)
[6] = read-out: mTOR activity, IC50 (semi-quantitative class)
[7] = read-out: mTOR actual IC50 (in parentheses)
[8] = read-out: PIM-1 activity, IC50 (semi-quantitative class)

T1 sequence (P42336 whole entry): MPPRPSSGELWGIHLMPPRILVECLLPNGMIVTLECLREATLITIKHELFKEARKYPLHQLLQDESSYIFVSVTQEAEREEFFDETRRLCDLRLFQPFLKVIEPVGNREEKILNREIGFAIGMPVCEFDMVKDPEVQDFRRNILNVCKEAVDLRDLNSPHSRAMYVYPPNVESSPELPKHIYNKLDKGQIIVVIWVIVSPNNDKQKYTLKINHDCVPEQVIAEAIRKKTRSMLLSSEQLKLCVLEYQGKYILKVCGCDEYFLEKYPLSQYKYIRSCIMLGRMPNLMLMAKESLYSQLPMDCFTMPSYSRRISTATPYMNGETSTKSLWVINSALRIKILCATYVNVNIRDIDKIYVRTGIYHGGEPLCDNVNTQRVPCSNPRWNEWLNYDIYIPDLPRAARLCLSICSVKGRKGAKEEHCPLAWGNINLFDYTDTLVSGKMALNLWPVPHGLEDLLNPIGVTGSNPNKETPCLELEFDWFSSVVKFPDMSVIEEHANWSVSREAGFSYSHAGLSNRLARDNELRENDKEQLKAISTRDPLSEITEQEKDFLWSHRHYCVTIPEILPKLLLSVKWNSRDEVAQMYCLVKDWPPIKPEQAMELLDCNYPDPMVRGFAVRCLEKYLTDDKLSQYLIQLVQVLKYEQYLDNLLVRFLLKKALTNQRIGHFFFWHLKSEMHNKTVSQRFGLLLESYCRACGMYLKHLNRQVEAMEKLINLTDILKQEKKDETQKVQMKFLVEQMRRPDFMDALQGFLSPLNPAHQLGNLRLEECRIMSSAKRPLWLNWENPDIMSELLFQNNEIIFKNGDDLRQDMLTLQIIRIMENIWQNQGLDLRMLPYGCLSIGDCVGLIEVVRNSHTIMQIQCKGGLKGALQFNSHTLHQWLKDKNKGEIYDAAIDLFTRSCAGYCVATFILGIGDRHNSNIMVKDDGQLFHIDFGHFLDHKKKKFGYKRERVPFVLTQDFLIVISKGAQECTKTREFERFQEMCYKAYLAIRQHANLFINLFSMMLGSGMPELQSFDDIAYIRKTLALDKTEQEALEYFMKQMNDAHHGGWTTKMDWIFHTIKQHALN
T1 sequence (P27986 whole entry partner): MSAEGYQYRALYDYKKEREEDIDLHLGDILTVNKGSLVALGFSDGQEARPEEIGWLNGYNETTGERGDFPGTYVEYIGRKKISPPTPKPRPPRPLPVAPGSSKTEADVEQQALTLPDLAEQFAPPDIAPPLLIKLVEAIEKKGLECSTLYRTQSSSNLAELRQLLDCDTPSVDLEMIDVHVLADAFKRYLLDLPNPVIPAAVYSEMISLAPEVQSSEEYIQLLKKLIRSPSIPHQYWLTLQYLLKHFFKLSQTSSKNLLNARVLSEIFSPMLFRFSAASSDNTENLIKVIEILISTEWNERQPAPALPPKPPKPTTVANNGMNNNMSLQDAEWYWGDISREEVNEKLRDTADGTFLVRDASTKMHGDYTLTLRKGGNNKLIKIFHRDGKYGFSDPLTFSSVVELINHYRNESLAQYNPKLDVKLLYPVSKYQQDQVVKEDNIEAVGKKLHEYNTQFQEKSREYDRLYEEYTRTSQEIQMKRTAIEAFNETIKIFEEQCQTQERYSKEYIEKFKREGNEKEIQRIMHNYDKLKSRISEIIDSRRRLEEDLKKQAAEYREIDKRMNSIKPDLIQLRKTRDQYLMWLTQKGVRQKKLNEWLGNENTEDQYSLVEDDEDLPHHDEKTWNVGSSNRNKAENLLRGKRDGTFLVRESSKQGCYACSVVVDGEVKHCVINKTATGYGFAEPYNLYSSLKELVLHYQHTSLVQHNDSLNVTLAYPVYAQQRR

Compound	IC50 [1, 4]	IC50 [1, 5]	IC50 [2, 6]	IC50 [2, 7]	IC50 [3, 8]	IC50 ([3]; read-out: PIM-1 actual IC50 (in parentheses))	IC50 ([1]; read-out: PI3K alpha IC50 (in parentheses))	IC50 ([1]; read-out: PI3K alpha activity (semi-quantitative IC50))	IC50 ([2]; read-out: mTOR activity (semi-quantitative IC50))
COc1ncc2cc1NS(=O)(=O)c1cccc(c1)C(=O)NCc1cncc(c1)-c1ccnc3ccc-2cc13 [compound 1]	< 100 nM	2 nM	< 100 nM	64 nM	> 1000 nM	–	–	–	–
O=C1NCc2cncc(c2)-c2ccnc3ccc(cc23)-c2cnc(O)c(c2)NS(=O)(=O)c2cccc1c2 [compound 2]	100 to 1000 nM	–	> 1000 nM	–	> 1000 nM	–	–	–	–
COc1ncc2cc1NS(=O)(=O)c1cccc(c1)C(=O)NCc1ccc(F)c(c1)-c1ccnc3ccc-2cc13 [compound 4]	< 100 nM	3 nM	100 to 1000 nM	–	> 1000 nM	–	–	–	–
COc1ncc2cc1NS(=O)(=O)c1cccc(c1)C(=O)NCc1cccc(c1F)-c1ccnc3ccc-2cc13 [compound 5]	< 100 nM	23 nM	100 to 1000 nM	–	> 1000 nM	–	–	–	–
COc1ncc2cc1NS(=O)(=O)c1cccc(c1)C(=O)NCC1CCN(CC1)c1ccnc3ccc-2cc13 [compound 6]	< 100 nM	11 nM	< 100 nM	72 nM	> 1000 nM	–	–	–	–
COc1ncc2cc1NS(=O)(=O)c1cccc(c1)C(=O)NCCCCNc1ccnc3ccc-2cc13 [compound 7]	> 1000 nM	–	> 1000 nM	–	> 1000 nM	–	–	–	–
COc1ncc2cc1NS(=O)(=O)c1cccc(c1)C(=O)NCc1cncc(c1)-c1cnc3sc-2nn13 [compound 8]	< 100 nM	7 nM	> 1000 nM	–	> 1000 nM	–	–	–	–
O=C1NCc2cncc(c2)-c2cnc3sc(nn23)-c2cnc(O)c(c2)NS(=O)(=O)c2cccc1c2 [compound 9]	100 to 1000 nM	–	> 1000 nM	–	100 to 1000 nM	–	–	–	–
COc1ncc2cc1NS(=O)(=O)c1cccc(c1)C(=O)NCc1cncc(c1)-c1cnn3ccc-2nc13 [compound 11]	< 100 nM	0.4 nM	< 100 nM	4 nM	> 1000 nM	–	–	–	–
COc1ncc2cc1NS(=O)(=O)c1cccc(c1)C(=O)NCc1cncc(c1)-c1cnc3ccc-2nn13 [compound 12]	< 100 nM	0.4 nM	< 100 nM	5 nM	> 1000 nM	–	–	–	–
COc1ncc2cc1NS(=O)(=O)c1cccc(c1)C(=O)NCc1cccc(c1)-c1cnc3ccc-2nn13 [compound 13]	< 100 nM	0.4 nM	< 100 nM	10 nM	> 1000 nM	–	–	–	–
COc1ncc2cc1NS(=O)(=O)c1cccc(c1)C(=O)NCc1cc(ccn1)-c1ccnc3ccc-2cc13 [compound 15]	< 100 nM	20 nM	100 to 1000 nM	–	> 1000 nM	–	–	–	–
COc1ncc2cc1NS(=O)(=O)c1cccc(c1)C(=O)NCc1cccc(c1)-c1cnc3sc-2nn13 [compound 17]	< 100 nM	9 nM	100 to 1000 nM	–	> 1000 nM	–	–	–	–
COc1ncc2cc1NS(=O)(=O)c1cccc(c1)C(=O)NCCn1cc(cn1)-c1cnc3ccc-2nn13 [compound 18]	< 100 nM	5 nM	< 100 nM	67 nM	> 1000 nM	–	–	–	–
COc1ncc2cc1NS(=O)(=O)c1cccc(c1)C(=O)NCCn1cc(cn1)-c1ccnc3ccc-2cc13 [compound 19]	< 100 nM	4 nM	< 100 nM	21 nM	> 1000 nM	–	–	–	–
COc1ncc2cc1NS(=O)(=O)c1cccc(c1)C(=O)NCc1cncc(c1)-c1c[nH]c3ncc-2cc13 [compound 20]	< 100 nM	80 nM	100 to 1000 nM	–	> 1000 nM	–	–	–	–
COc1ncc2cc1NS(=O)(=O)c1cccc(c1)C(=O)NCc1cncc(c1)-c1ncnc3sc-2cc13 [compound 21]	< 100 nM	85 nM	> 1000 nM	–	100 to 1000 nM	–	–	–	–

Compound	IC50 [1, 4]	IC50 [1, 5]	IC50 [2, 6]	IC50 [2, 7]	IC50 [3, 8]	IC50 ([3]; read-out: PIM-1 actual IC50 (in parentheses))	IC50 ([1]; read-out: PI3K alpha IC50 (in parentheses))	IC50 ([1]; read-out: PI3K alpha activity (semi-quantitative IC50))	IC50 ([2]; read-out: mTOR activity (semi-quantitative IC50))
COc1ncc2cc1NS(=O)(=O)c1cccc(c1)C(=O)NCCN1CC=C(CC1)c1cnc3ccc-2nn13 [compound 23]	< 100 nM	5 nM	< 100 nM	22 nM	> 1000 nM	–	–	–	–
COc1ncc2cc1NS(=O)(=O)c1cccc(c1)C(=O)N(C)CC1CCN(CC1)c1ccnc3ccc-2cc13 [compound 24]	< 100 nM	3 nM	< 100 nM	4 nM	> 1000 nM	–	–	–	–
COc1ncc2cc1NS(=O)(=O)c1cccc(c1)C(=O)NCCn1cc(cn1)-c1cnn3ccc-2nc13 [compound 26]	< 100 nM	4 nM	< 100 nM	40 nM	> 1000 nM	–	–	–	–
COc1ncc2cc1NS(=O)(=O)c1cccc(c1)C(=O)NCc1cncc(c1)-c1ncnc3c1SC2=C3 [compound 27]	100 to 1000 nM	–	> 1000 nM	–	< 100 nM	40 nM	–	–	–
COc1ncc2cc1NS(=O)(=O)c1cccc(c1)C(=O)NCc1cccc(c1)-c1ncnc3c1SC2=C3 [compound 28]	100 to 1000 nM	–	> 1000 nM	–	100 to 1000 nM	–	–	–	–
COc1ncc2cc1NS(=O)(=O)c1cc(c(F)cc1F)C(=O)NCc1cccc(c1)-c1ccnc3ccc-2cc13 [compound 29]	< 100 nM	6 nM	100 to 1000 nM	–	> 1000 nM	–	–	–	–
COc1ncc2cc1NS(=O)(=O)c1cccc(c1)C(=O)NCc1cncc(c1)-c1cnc3ccc-2cn13 [compound 30]	< 100 nM	11 nM	< 100 nM	49 nM	> 1000 nM	–	–	–	–
COc1ncc2cc1NS(=O)(=O)c1cccc(c1)C(=O)NCC1CCN(CC1)c1ncnc3ccc-2cc13 [compound 32]	< 100 nM	2 nM	< 100 nM	5 nM	> 1000 nM	–	–	–	–
COc1ncc2cc1NS(=O)(=O)c1cccc(c1)C(=O)NCCn1cc(cn1)-c1cnc3ccc-2cn13 [compound 34]	< 100 nM	7.6 nM	< 100 nM	66 nM	> 1000 nM	–	–	–	–
COc1ncc2cc1NS(=O)(=O)c1cccc(c1)C(=O)NCc1cccc(c1)-c1ccnc3ccc-2nc13 [compound 35]	< 100 nM	5 nM	< 100 nM	16 nM	> 1000 nM	–	–	–	–
COc1ncc2cc1NS(=O)(=O)c1cccc(c1)C(=O)NCCn1cc(cn1)-c1ncnc3c1SC2=C3 [compound 36]	100 to 1000 nM	–	> 1000 nM	–	100 to 1000 nM	–	–	–	–
COc1ncc2cc1NS(=O)(=O)c1cccc(c1)C(=O)NCc1cccc(c1)-c1ncnc3sc-2cc13 [compound 37]	< 100 nM	20 nM	> 1000 nM	–	> 1000 nM	–	–	–	–
COc1ncc2cc1NS(=O)(=O)c1cccc(c1)C(=O)NCC1CCN(CC1)c1ncnc3cc-2sc13 [compound 38]	> 1000 nM	–	> 1000 nM	–	> 1000 nM	–	–	–	–
COc1ncc2cc1NS(=O)(=O)c1cccc(c1)C(=O)NCc1cc(cs1)-c1ncnc3c1SC2=C3 [compound 74]	> 1000 nM	–	–	–	100 to 1000 nM	–	–	–	–
COc1ncc2cc1NS(=O)(=O)c1cccc(c1)C(=O)N[C@H]1CCCN(C1)c1ncnc3c1SC2=C3 [compound 75]	> 1000 nM	–	–	–	> 1000 nM	–	–	–	–
COc1ncc2cc1NS(=O)(=O)c1cccc(c1)C(=O)N[C@@H]1CCCN(C1)c1ncnc3c1SC2=C3 [compound 76]	> 1000 nM	–	–	–	100 to 1000 nM	–	–	–	–
COc1ncc2cc1NS(=O)(=O)c1cccc(c1)C(=O)NCc1cc(ccn1)-c1cnc3sc-2nn13 [compound 96]	–	–	–	–	–	–	8.8 nM	< 100 nM	100 to 1000 nM
